Experimental findings from ChEMBL document CHEMBL1201862, “PubChem BioAssay data set” (2004) are described below.

Active and inactive are the calls of the source. A value given as a limit tells only on which side of the number the result lay.

Assay [1] is described as follows: cytotoxicity toward NIH3T3 fibroblasts, dose response, counter-screen, cell-based, ATP luminescence, mouse fibroblasts (AID 2010).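 Further: cells exposed to compound for about 90 hours before reading.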 The format is functional. For orientation: A counterscreen serves to expose hits that act by an unwanted route or on another target.
Assay [2] can be described thus: inhibitors of intracellular T. cruzi replication, confirmation, NIH3T3 host cells, beta-gal luminescence (AID 2044).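 Further: intracellular parasites grown in NIH/3T3 mouse fibroblasts as host cells; luminescent beta-galactosidase reporter signal from transgenic T. cruzi replicating inside host cells; inhibitors lower the luminescence signal.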 The format is functional, cell-based.
The target in assay [3] is Voltage-gated inwardly rectifying potassium channel KCNH2 (Homo sapiens, UniProt Q12809). The assay can be described thus: hERG protection from proarrhythmic block, potency, dose response, cell-based, thallium flux (AID 2121). The format is ADME.
Sequence of Voltage-gated inwardly rectifying potassium channel KCNH2 (Q12809 whole entry): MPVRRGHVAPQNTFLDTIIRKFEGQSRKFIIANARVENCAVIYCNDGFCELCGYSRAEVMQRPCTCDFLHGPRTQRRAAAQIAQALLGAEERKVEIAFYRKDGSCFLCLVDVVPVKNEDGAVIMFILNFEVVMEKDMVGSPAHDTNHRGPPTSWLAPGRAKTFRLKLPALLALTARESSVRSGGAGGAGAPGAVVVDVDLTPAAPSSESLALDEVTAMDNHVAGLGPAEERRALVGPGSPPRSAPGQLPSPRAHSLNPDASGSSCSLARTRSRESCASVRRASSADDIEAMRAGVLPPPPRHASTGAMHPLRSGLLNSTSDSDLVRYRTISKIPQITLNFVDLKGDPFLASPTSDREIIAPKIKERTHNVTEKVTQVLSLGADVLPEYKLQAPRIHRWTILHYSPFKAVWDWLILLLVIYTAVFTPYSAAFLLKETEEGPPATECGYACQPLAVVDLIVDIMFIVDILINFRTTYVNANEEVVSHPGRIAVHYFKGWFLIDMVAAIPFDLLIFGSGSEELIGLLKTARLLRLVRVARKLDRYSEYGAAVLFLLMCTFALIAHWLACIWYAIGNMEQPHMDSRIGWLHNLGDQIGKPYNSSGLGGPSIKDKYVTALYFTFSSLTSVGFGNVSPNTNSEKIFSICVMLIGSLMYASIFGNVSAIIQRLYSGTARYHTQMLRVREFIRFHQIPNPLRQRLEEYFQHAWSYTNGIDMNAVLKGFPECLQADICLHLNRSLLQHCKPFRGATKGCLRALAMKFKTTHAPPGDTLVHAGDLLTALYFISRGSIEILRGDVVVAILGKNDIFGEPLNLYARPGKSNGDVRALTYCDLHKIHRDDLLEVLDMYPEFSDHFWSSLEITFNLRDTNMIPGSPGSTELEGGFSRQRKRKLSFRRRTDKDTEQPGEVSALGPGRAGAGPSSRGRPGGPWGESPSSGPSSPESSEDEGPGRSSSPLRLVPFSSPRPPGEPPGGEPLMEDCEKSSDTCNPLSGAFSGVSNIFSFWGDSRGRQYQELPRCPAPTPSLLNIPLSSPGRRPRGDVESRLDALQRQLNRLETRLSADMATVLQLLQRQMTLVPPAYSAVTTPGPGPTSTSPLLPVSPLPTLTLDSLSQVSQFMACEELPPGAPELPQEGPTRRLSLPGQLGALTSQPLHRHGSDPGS
Assay [4] addresses Sphingosine 1-phosphate receptor 2 (Homo sapiens, UniProt O95136). The assay can be described thus: Dose Response Cell Based Assay for Agonists of the S1P2 Receptor of Purchased Analogues. [Related pubchem assays: 729, 843, 854, 736 ]. The format is functional.
In assay [5] the target is T1, Cytochrome P450 2D6 (Homo sapiens, UniProt P10635). The assay can be described thus: qHTS Assay for Inhibitors and Substrates of Cytochrome P450 2D6. [Related pubchem assays: 410 ]. The format is ADME. As to conditions: read-out: Potency. Background: qHTS replaces the single test concentration by a dilution series.
T1 sequence (P10635 whole entry): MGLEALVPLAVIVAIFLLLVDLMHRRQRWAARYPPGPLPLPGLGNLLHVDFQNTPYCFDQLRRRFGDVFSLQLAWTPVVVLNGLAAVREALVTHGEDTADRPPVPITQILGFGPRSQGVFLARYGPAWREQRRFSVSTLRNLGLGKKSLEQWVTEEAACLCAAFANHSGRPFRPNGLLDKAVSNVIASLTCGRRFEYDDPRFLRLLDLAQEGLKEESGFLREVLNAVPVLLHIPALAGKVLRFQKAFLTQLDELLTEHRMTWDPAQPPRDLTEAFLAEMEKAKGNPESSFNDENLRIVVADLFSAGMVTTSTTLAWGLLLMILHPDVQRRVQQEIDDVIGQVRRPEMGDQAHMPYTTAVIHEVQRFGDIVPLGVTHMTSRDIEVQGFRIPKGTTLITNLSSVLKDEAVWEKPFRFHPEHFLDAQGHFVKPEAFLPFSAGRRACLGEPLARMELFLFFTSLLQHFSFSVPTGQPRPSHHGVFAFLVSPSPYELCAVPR
The target of assay [6] is T2, Cytochrome P450 2C19 (Homo sapiens, UniProt P33261). The assay can be described thus: qHTS Assay for Inhibitors and Substrates of Cytochrome P450 2C19. [Related pubchem assays: 410 ]. The format is ADME. As to conditions: read-out: Potency.
T2 sequence (P33261 whole entry): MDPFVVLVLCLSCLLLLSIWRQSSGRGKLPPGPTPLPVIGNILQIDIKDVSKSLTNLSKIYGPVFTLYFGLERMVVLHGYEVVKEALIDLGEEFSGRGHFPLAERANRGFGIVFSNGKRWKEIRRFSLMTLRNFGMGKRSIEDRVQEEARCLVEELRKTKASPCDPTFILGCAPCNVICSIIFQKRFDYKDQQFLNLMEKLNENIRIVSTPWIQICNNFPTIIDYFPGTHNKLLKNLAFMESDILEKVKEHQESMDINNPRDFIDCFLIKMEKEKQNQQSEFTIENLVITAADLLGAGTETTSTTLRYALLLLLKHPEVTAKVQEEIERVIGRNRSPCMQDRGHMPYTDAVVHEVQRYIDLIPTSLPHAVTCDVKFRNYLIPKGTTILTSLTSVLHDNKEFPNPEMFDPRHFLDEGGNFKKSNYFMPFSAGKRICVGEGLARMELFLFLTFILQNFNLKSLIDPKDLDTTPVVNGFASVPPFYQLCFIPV
Assay [7] in a line: inhibitors of Bluetongue virus cytopathic effect, confirmation, arbovirus, BSR cells (AID 1250).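 Further: protection from viral cytopathic effect measured as cell viability by ATP luminescence.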 The format is functional. On the technique in general: Cytopathic effects are the visible damage that an infection or toxin causes in cultured cells.
The test system of assay [8] is HEK293. The assay can be described thus: NOD2 signaling inhibitors in MDP-stimulated cells, cell-based, uHTS, luminescence (AID 2001). The format is functional. The note with it: Homo sapiens.
The subject of assay [9] is HEK293. The assay can be described thus: NOD1 signaling inhibitors, primary screen, cell-based, luminescence, uHTS (AID 1578). As to conditions: Homo sapiens. The format is functional.
Assay [10] concerns HEK293. The assay can be described thus: cells. The format is functional, cell-based. The note with it: Homo sapiens.
Assay [11] has as its system HEK293. The assay can be described thus: cells. As to conditions: Homo sapiens. The format is functional, cell-based. The source holds these as a separate data set.
For assay [12], the target named is T1, Cytochrome P450 2D6.
Assay [13] can be described thus: cytotoxicity in HPDE-C7 cells, cell-based, fluorescence, HTS (AID 430). The format is functional. As to conditions: Homo sapiens.
The nature of assay [14]: cytotoxicity in KRAS-transformed pancreatic duct cells, primary screen, cell-based, fluorescence, HTS (AID 431).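 Further: cell line used: HPDE-C7K.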 The format is functional. As to conditions: Homo sapiens.
The next assay deals with T3, Estrogen receptor (Homo sapiens, UniProt P03372).
T3 sequence (P03372 whole entry): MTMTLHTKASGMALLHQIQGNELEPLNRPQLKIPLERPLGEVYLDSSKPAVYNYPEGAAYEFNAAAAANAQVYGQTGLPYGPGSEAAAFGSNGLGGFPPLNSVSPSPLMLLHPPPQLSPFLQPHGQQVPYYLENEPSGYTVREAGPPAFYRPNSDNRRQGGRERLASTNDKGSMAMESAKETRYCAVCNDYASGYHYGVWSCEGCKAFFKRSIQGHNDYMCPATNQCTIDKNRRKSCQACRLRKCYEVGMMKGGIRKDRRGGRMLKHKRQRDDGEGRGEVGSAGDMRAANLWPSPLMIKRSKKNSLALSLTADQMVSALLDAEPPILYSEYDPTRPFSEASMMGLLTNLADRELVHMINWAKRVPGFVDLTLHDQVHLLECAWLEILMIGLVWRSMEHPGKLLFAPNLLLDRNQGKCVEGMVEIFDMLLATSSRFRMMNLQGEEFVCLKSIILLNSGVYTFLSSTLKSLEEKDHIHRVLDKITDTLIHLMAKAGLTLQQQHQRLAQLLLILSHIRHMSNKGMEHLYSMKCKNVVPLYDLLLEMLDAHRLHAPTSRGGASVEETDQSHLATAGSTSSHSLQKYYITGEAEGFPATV
The assay can be described thus: potentiators of ERα–SRC-1 coactivator binding, dose response, biochemical, TR-FRET, ERα LBD (AID 737).

The next assay concerns Vero. The assay can be described thus: Vero cell cytotoxicity, cytotoxicity control for flavivirus capping enzyme inhibitors (AID 588742). The note with it: Chlorocebus sabaeus. The format is functional.
Assay [15] deals with T2, Cytochrome P450 2C19. The assay can be described thus: Cytochrome panel assay with activity outcomes. Panel member name: p450-cyp2c19 Compounds with AC50 equal or less than 10 uM are considered active. The format is functional. The note with it: read-out: AC50.
Assay [16] addresses T4, Cytochrome P450 2C9 (Homo sapiens, UniProt P11712).
Assay [17] addresses T4, Cytochrome P450 2C9. The note with it: Potency.

T4 sequence (P11712 whole entry): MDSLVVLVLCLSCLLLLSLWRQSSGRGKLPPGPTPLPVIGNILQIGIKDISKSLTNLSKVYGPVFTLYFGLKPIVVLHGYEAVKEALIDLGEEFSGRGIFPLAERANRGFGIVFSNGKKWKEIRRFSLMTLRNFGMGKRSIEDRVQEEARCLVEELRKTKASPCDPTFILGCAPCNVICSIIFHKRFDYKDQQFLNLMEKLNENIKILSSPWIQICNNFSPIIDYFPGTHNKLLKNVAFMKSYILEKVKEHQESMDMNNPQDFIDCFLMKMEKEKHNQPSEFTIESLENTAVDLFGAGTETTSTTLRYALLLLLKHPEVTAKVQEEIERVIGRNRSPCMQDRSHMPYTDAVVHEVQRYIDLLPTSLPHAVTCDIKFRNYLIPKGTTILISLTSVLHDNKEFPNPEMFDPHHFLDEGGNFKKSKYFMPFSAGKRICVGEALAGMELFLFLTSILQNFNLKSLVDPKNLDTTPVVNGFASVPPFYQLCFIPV
Sequence of Sphingosine 1-phosphate receptor 2 (O95136 whole entry): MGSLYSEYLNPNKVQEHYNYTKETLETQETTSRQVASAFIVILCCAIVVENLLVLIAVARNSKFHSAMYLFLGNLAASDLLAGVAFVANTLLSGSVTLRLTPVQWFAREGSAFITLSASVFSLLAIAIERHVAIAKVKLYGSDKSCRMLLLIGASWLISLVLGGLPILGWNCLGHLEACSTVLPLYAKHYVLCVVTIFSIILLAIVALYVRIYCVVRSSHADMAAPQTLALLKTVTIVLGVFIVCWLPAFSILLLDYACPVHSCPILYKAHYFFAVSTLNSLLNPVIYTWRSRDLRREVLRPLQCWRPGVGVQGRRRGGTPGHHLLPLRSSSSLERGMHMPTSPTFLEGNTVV

Consider `Cc1cccc(Cn2c(O)c(N=NC(S)=Nc3ccccc3F)c3ccccc32)c1`, for which the EC50 – broadly, the concentration giving half of the maximal effect – in [1] was 2.68 µM (active); in assay [2], 0.663 µM (active); in [3], 1.09 µM (active).
Consider `Cc1cc(C(=O)CN2CCN(C(=O)c3ccco3)CC2)c(C)n1Cc1ccccc1`, for which the EC50 in [4] is given as > 30 µM (not active).
As for `O=C1c2ccccc2C(O)(O)[C@@]1(O)[C@]1(O)C(=O)c2ccccc2C1(O)O`, the AC50 on Cytochrome P450 2D6 [5] was 7.94 µM (inconclusive).
For the compound `COc1cccc(NC(=O)/C=C\c2ccc(Cl)cc2)c1`, at Cytochrome P450 2C19 [6], the AC50 is 3.98 µM (inconclusive).
As for `CC(CCc1ccccc1)NC(=O)c1cc2sccc2n1C` (stereo unspecified), the IC50 (commonly the concentration needed to halve the response being measured) in assay [7] was > 100 µM (active).
`CSC(=S)N/N=C/c1ccc(Br)cc1`: the values for the IC50 with HEK293 [8], in the assay on HEK293 [10] and in the assay on HEK293 [11] were 14.2 µM (inactive), > 20 µM (inactive) and > 20 µM (inactive), respectively. Besides, the EC50 with HEK293 [9] was > 20 µM (inactive); in assay [3], 0.3 µM (active).
Consider `COc1ccc(C[C@H]2c3cc(OC)c(OC)cc3CCN2C)cc1OC`, for which the AC50 is 6.31 µM (inconclusive) on Cytochrome P450 2D6 [12] and 12.6 µM (inconclusive) at Cytochrome P450 2D6 [5].
Regarding `CCC(=O)Oc1ccc(/C(CC)=C(\CC)c2ccc(OC(=O)CC)cc2)cc1` [DIETHYLSTILBESTROL DIPROPIONATE], the EC50 in assay [13] was 4.6 µM (active); in [14], 3.87 µM (active); at Estrogen receptor it was 18.1 µM (active). Besides, in the assay on Vero, the CC50 (as a rule, the concentration giving 50% cytotoxicity) was > 40 µM (active).
With `CC(C)C(=O)Nc1ccc([N+](=O)[O-])c(C(F)(F)F)c1` [FLUTAMIDE], the results for the AC50 on Cytochrome P450 2C19 [15], at Cytochrome P450 2C9 [16] and at Cytochrome P450 2C9 [17] were 10 µM (inconclusive), 12.6 µM (inconclusive) and 39.8 µM (inconclusive), respectively.
